Consider 3 molecules from ChEMBL document CHEMBL1782045, “Discovery, synthesis, and investigation of the antitumor activity of novel piperazinylpyrimidine derivatives” (Eur J Med Chem, 2011).

Series [1] has as its system UACC-62. Description: Cytotoxicity against human UACC62 cells after 48 hrs by sulforhodamine B assay. The class given is cell-based. The settings on record: uacc-62, 48 h. (In general: Sulforhodamine B stains cellular protein and so reports cell mass.)
Series [2] has as its system SK-OV-3. Description: Cytotoxicity against human SKOV3 cells after 48 hrs by sulforhodamine B assay. It counts as cell-based. The note with it: sk-ov-3, 48 h.
For series [3], the system named is SN12C. Description: Cytotoxicity against human SN12C cells after 48 hrs by sulforhodamine B assay. The class given is cell-based.
The test system of series [4] is K562. In words: Growth inhibition of human K562 cells after 48 hrs by sulforhodamine B assay. The class given is functional. The note with it: K562, 48 h.
The target of series [5] is Serine/threonine-protein kinase B-raf (Homo sapiens) (UniProt P15056). In words: Binding affinity to human BRAF at 10 uM incubated for 1 hr by kinase binding assay relative to untreated control.
Chain of Serine/threonine-protein kinase B-raf (Homo sapiens) (P15056 whole entry, canonical isoform): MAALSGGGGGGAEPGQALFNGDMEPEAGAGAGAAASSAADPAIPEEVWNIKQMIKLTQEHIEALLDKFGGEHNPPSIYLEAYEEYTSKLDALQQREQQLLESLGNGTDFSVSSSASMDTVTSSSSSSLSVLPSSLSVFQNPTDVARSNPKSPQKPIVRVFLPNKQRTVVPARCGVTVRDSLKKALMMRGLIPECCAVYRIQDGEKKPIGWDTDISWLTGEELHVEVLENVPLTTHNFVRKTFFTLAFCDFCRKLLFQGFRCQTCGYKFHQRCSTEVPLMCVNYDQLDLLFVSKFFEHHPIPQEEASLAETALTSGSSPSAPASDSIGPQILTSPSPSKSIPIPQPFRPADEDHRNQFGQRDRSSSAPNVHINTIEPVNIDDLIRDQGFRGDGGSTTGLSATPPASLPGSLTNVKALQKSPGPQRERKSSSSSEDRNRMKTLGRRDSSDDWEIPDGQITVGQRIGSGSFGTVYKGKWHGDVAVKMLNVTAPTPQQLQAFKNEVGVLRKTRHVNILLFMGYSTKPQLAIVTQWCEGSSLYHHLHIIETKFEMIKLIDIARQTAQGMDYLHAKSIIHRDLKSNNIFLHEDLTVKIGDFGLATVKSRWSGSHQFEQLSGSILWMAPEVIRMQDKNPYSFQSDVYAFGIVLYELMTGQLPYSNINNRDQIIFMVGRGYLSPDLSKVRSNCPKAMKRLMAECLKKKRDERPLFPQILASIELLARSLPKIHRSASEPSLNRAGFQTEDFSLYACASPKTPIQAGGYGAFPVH
For series [6], the target named is Casein kinase I isoform delta (Homo sapiens) (UniProt P48730). Description: Binding affinity to human CSNK1D at 10 uM incubated for 1 hr by kinase binding assay relative to untreated control.
Chain of Casein kinase I isoform delta (Homo sapiens) (P48730 whole entry, looked up, canonical isoform): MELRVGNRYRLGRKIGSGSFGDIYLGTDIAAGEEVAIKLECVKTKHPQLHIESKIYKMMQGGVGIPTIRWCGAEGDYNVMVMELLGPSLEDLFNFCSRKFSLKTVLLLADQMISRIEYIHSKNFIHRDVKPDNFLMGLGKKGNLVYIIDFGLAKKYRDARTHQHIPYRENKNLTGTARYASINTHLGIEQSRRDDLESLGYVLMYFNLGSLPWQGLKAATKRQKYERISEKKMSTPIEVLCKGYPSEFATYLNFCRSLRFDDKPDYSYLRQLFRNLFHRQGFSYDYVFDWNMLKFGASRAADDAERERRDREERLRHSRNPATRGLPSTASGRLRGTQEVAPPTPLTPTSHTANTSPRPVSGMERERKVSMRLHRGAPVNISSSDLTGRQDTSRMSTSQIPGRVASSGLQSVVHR
In series [7] the target is Casein kinase I isoform gamma-3 (Homo sapiens) (UniProt Q9Y6M4). In words: Binding affinity to human CSNK1G3 at 10 uM incubated for 1 hr by kinase binding assay relative to untreated control.
Chain of Casein kinase I isoform gamma-3 (Homo sapiens) (Q9Y6M4 whole entry, looked up, canonical isoform): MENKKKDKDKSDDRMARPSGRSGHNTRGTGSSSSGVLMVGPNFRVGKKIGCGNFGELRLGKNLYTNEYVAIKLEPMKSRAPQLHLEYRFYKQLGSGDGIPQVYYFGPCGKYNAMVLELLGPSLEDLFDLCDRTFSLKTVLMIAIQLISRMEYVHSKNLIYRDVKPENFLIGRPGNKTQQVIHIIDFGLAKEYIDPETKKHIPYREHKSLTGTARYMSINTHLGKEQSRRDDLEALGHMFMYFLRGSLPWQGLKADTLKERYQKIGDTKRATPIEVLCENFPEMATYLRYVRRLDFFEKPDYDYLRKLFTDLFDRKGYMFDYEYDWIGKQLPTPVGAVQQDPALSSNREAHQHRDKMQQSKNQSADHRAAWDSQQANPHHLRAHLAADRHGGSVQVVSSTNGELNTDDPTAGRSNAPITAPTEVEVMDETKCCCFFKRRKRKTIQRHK
Series [8] relates to T1, Receptor-type tyrosine-protein kinase FLT3 (Homo sapiens), P36888 [D835H].
T1 sequence (whole entry): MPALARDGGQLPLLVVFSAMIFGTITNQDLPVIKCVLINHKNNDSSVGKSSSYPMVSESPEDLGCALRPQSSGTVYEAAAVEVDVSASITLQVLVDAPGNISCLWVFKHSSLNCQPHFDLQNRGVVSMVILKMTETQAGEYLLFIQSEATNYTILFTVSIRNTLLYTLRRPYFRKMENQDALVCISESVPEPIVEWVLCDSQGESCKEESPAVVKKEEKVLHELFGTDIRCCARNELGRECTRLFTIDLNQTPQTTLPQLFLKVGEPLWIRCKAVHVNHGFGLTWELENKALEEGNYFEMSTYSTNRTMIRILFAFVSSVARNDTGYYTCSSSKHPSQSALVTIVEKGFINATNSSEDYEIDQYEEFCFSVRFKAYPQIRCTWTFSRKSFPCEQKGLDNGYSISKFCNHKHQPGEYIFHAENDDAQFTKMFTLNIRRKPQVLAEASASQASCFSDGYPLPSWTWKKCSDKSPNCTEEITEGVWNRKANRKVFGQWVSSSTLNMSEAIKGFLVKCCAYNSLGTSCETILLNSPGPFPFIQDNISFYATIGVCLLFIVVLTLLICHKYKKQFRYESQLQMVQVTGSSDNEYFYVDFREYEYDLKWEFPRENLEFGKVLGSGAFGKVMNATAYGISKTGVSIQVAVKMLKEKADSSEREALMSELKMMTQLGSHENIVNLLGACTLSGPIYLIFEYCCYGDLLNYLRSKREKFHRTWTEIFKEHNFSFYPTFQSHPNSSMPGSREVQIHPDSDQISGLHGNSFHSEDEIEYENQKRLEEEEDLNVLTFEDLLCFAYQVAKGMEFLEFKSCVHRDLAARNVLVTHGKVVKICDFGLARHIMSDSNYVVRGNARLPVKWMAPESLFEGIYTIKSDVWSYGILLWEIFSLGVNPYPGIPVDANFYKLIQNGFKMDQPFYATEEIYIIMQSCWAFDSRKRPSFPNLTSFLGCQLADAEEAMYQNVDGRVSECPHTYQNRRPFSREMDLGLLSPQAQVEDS
Description: Binding affinity to human FLT3 D835H mutant at 10 uM incubated for 1 hr by kinase binding assay relative to untreated control.

The subject of series [9] is KM12. In words: Growth inhibition of human KM12 cells after 48 hrs by sulforhodamine B assay. It counts as functional. The note with it: KM12, 48 h.
In series [10] the test system is MDA-MB-435. In words: Growth inhibition of human MDA-MB-435 cells after 48 hrs by sulforhodamine B assay. The class given is functional. The note with it: MDA-MB-435, 48 h.
Series [11] has as its system SK-OV-3. Description: Growth inhibition of human SKOV3 cells after 48 hrs by sulforhodamine B assay. The class given is functional. The settings on record: SK-OV-3, 48 h.
The test system of series [12] is A498. In words: Growth inhibition of human A498 cells after 48 hrs by sulforhodamine B assay. The class given is functional. The note with it: A498, 48 h.
Series [13] has as its system Receptor-type tyrosine-protein kinase FLT3 (Homo sapiens), P36888 [UNDEFINED MUTATION]. In words: Binding affinity to human FLT3 ITD mutant at 10 uM incubated for 1 hr by kinase binding assay relative to untreated control.
Series [14] addresses T2, Receptor-interacting serine/threonine-protein kinase 1 (Homo sapiens) (UniProt Q13546).
T2 sequence (whole entry): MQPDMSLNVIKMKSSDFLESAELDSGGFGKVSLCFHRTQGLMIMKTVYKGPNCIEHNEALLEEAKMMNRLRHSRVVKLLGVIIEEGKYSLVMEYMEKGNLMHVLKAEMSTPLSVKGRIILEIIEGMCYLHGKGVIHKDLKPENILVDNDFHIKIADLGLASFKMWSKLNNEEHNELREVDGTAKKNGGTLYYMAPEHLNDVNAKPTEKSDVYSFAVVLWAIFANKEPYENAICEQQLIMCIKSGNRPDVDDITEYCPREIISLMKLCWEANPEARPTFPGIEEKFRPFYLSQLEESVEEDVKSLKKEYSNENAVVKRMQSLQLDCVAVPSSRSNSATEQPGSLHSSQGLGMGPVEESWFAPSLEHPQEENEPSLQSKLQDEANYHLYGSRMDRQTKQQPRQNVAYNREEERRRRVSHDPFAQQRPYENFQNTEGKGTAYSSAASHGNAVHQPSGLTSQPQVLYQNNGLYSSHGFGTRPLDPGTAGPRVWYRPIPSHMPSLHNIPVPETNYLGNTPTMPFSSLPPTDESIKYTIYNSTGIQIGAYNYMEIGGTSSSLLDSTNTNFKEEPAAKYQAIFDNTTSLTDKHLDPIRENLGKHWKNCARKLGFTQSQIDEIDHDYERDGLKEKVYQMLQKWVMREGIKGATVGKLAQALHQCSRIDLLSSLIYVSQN
Description: Binding affinity to human RIPK1 at 10 uM incubated for 1 hr by kinase binding assay relative to untreated control.

Series [15] relates to SN12C. Description: Growth inhibition of human SN12C cells after 48 hrs by sulforhodamine B assay. It counts as functional.
Series [16] concerns TK-10. In words: Growth inhibition of human TK10 cells after 48 hrs by sulforhodamine B assay. The class given is functional. The note with it: TK-10, 48 h.
The subject of series [17] is T47D. Description: Growth inhibition of human T47D cells after 48 hrs by sulforhodamine B assay. The class given is functional.
Series [18] relates to HOP-92. Description: Cytotoxicity against human HOP92 cells after 48 hrs by sulforhodamine B assay. It counts as cell-based. The note with it: hop-92, 48 h.
Series [19] relates to NCI-H226. In words: Cytotoxicity against human NCI-H226 cells after 48 hrs by sulforhodamine B assay. It counts as cell-based. The settings on record: nci-h226, 48 h.
For series [20], the system named is NCI-H23. Description: Cytotoxicity against human NCI-H23 cells after 48 hrs by sulforhodamine B assay. The class given is cell-based. The note with it: nci-h23, 48 h.
In series [21] the test system is HCT-15. Description: Cytotoxicity against human HCT15 cells after 48 hrs by sulforhodamine B assay. It counts as cell-based. The note with it: hct-15, 48 h.
The test system of series [22] is SNB-19. Description: Cytotoxicity against human SNB19 cells after 48 hrs by sulforhodamine B assay. It counts as cell-based. The settings on record: snb-19, 48 h.
For series [23], the system named is U-251. In words: Cytotoxicity against human U251 cells after 48 hrs by sulforhodamine B assay. It counts as cell-based. The note with it: u-251, 48 h.

By LC50 is commonly meant the concentration that kills 50% of the test population. Read a low LC50 as a more lethal substance. By TGI is commonly meant the concentration giving total growth inhibition.

As for `O=C(c1cccc(Nc2ncnc3ccccc23)c1)N1CCN(c2ncc(Cc3ccccc3)cn2)CC1`, the LC50 in [1] was 5.37 µM; in series [2], more than 100 µM; in series [3], more than 100 µM; in series [18], more than 100 µM; in series [19], 7.94 µM; in series [20], 6.92 µM. For the same molecule, the LC50 in series [21] was 9.33 µM; in [22], more than 100 µM; in series [23], more than 100 µM. Moreover, the total growth inhibition concentration (TGI) in series [4] was found to be 2.23 µM; in [9], 2.4 µM; in series [10] it was 2.14 µM; in series [11], 4.47 µM; in series [12], 5.37 µM; in [15], 7.08 µM. In addition, the total growth inhibition concentration (TGI) in series [16] turned out to be 6.17 µM; in series [17], 7.59 µM. In addition, the Activity is more than 50% in series [5]; 22% in series [6]; more than 50% in series [7]; more than 50% in series [8]; more than 50% in series [13]; 19% in [14].

As to `c1ccc(Cc2cnc(N3CCN(c4ncnc5ccccc45)CC3)nc2)cc1`, the LC50 in series [1] is 63.1 µM; in series [2], more than 100 µM; in series [3] it was 54.8 µM; in series [18], 62 µM; in series [19] it was more than 100 µM; in series [20], more than 100 µM. In addition, the LC50 in series [21] was more than 100 µM; in [22], more than 100 µM; in [23], 54.1 µM. Besides, the TGI in series [4] is more than 100 µM; in series [9] it was 25.1 µM; in series [10] it was 27.5 µM; in series [11], more than 100 µM; in series [12] it was 24.2 µM; in [15], 24.4 µM. The concentration for total growth inhibition (TGI) in series [16] stood at 60.8 µM; in series [17] it was 45.5 µM. Also, the Activity was more than 50% in series [5]; 26% in [6]; more than 50% in [7]; 46% in [8]; 49% in series [13]; 3.5% in [14].

`CCc1cnc(N2CCN(C(=O)c3ccc(CNc4ncnc5ccccc45)cc3)CC2)nc1`: the LC50 in series [1], in [2], in series [3], in series [18], in series [19] and in series [20] was more than 100 µM each time. Moreover, the LC50 in [21], in series [22] and in series [23] was more than 100 µM each time. Further, the concentration for total growth inhibition (TGI) in series [4] is more than 100 µM; in [9] it was 24.3 µM; in [10], more than 100 µM; in series [11] it was more than 100 µM; in series [12], more than 100 µM; in series [15], 59 µM. The TGI in series [16] and in [17] was more than 100 µM in each case. The Activity in [5] was 34%; in series [6] it was 23%; in [7], 24%; in series [8], more than 50%; in series [13], more than 50%; in [14], more than 50%.
